Three compounds from ChEMBL document CHEMBL1157358, “Comparative study of the effects of pyridoxine, rifampin, and renal function on hematological adverse events induced by linezolid” (Antimicrob Agents Chemother, 2007) can be followed below.

The species entered for data set [1] is Homo sapiens. Nature of the data set: Inhibition of linezolid-induced hematological events in orthopedic implant infection patient assessed as thrombocytopenia incidence relative to control. The class given is functional. Also on record: scale not given: the % may be the effect or the level left.
For data set [2], the species on record is Homo sapiens. In words: Inhibition of linezolid-induced hematological events in orthopedic implant infection patient assessed as reduction of anemia incidence relative to control. Type of data set: functional, organism-based.
Data set [3] concerns Homo sapiens. Nature of the data set: Inhibition of linezolid-induced hematological events in orthopedic implant infection patient assessed as effect on thrombocytopenia at 200 mg, po once daily. Type of data set: functional, organism-based.
Data set [4] deals with Homo sapiens. Nature of the data set: Inhibition of linezolid-induced hematological events in orthopedic implant infection patient assessed as effect on anemia at 200 mg, po once daily. Type of data set: functional, organism-based.
The species entered for data set [5] is Homo sapiens. In words: Inhibition of linezolid-induced hematological events in bone infection patient assessed as rate of thrombocytopenia at 125 mg relative to control. The arrangement: scale not given: the % may be the effect or the level left. The class given is functional.
Data set [6] is filed under the species Homo sapiens. In words: Inhibition of linezolid-induced hematological events in bone infection patient assessed as rate of anemia at 125 mg relative to control. The arrangement: scale not given: the % may be the effect or the level left. Type of data set: functional.
In the next data set the test system is Staphylococcus aureus. Nature of the data set: Antibacterial activity against Staphylococcus aureus. Type of data set: functional.
A further data set deals with Staphylococcus. In words: Antibacterial activity against coagulase-negative Staphylococcus. Type of data set: functional.
A further data set relates to Enterococcus. In words: Antibacterial activity against Enterococcus. Type of data set: functional.
A further data set has as its system Streptococcus. In words: Antibacterial activity against Streptococcus. Type of data set: functional.
The subject of data set [7] is mitochondrial protein synthesis. Nature of the data set: Toxicity in rat heart mitochondria assessed as inhibition of mitochondrial protein synthesis. To be noted: pooled result: one value given for 4 cell lines, strains, targets or settings.
The nature of data set [8]: AUC in human at 600 mg administered every 12 hrs measured after 24 hrs. Type of data set: ADME, organism-based. The arrangement: time < 24 hr, dose 600 mg. To be noted: plasma.
Data set [9] can be described thus: Drug level at steady state in human serum at 600 mg administered every 12 hrs. The class given is ADME, cell-free. Conditions: read-out: Drug uptake.

≈ marks a conversion by molar mass, not a printed value. Calls of active or inactive are those of the source.

For `CO[C@H]1/C=C/O[C@@]2(C)Oc3c(C)c(O)c4c(O)c(c(/C=N/N5CCN(C)CC5)c(O)c4c3C2=O)NC(=O)/C(C)=C\C=C\[C@H](C)[C@H](O)[C@@H](C)[C@@H](O)[C@@H](C)[C@H](OC(C)=O)[C@@H]1C` [RIFAMPIN], the Activity in the data set listed under Homo sapiens [1] is recorded as 5.8%. For the same compound, the outcome in the data set filed under Homo sapiens [2] was Active.
For `Cc1ncc(CO)c(CO)c1O` [PYRIDOXINE], the outcome with Homo sapiens [3] and with Homo sapiens [4] was inactive. Moreover, the Activity in the data set filed under Homo sapiens [5] was found to be 45.8%; in the data set filed under Homo sapiens [6] it was 25%.
As for `CC(=O)NC[C@H]1CN(c2ccc(N3CCOCC3)c(F)c2)C(=O)O1` [LINEZOLID], the MIC against Staphylococcus aureus, against Staphylococcus, against Enterococcus and with Streptococcus was 0.5 µg/mL (≈ 1.48 µM) in each case. Also, the IC50 in [7] is 3.37 µg/mL (≈ 9.99 µM). Moreover, the AUC at 24 h in data set [8] was 260 µg·h/mL. In data set [9], the concentration at 12 h stood at 6000 ng/mL.

In general, MIC refers to the smallest concentration in the dilution series that meets the test's criterion for growth inhibition. Broadly, the IC50 is the midpoint of a concentration-inhibition curve. Usually AUC stands for the area under the concentration-time curve, a measure of exposure.
